Experimental data as given in ChEMBL document CHEMBL1955765, “Wake-promoting agents: search for next generation modafinil: part II” (Bioorg Med Chem Lett, 2012).

Experiments:
Cytochrome P450 2D6 = Cytochrome P450 2D6 (Homo sapiens, UniProt P10635); experiment: Inhibition of CYP2D6 in human microsome; assay type: ADME
[1] = target: Sodium-dependent serotonin transporter (Rattus norvegicus, UniProt P31652); experiment: Inhibition of rat SERT-mediated uptake
Cytochrome P450 2C19 = Cytochrome P450 2C19 (Homo sapiens, UniProt P33261); experiment: Inhibition of CYP2C19 in human microsome; assay type: ADME
Cytochrome P450 2C19, sequence (P33261 whole entry): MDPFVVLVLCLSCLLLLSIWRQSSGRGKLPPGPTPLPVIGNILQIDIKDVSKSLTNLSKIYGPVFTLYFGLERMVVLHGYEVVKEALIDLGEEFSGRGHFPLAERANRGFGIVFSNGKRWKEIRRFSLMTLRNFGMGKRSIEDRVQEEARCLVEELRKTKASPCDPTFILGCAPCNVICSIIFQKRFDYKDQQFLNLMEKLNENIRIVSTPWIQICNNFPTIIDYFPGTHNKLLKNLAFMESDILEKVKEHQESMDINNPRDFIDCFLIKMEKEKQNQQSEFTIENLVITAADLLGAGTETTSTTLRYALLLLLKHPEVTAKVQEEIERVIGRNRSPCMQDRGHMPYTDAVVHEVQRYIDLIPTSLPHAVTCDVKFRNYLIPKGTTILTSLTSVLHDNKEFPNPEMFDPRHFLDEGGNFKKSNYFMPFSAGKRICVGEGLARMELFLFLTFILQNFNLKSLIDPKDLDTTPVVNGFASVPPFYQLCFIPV

Transporter = Transporter (Rattus norvegicus, UniProt Q63380); experiment: Inhibition of rat NET-mediated uptake
Transporter, sequence (Q63380 whole entry): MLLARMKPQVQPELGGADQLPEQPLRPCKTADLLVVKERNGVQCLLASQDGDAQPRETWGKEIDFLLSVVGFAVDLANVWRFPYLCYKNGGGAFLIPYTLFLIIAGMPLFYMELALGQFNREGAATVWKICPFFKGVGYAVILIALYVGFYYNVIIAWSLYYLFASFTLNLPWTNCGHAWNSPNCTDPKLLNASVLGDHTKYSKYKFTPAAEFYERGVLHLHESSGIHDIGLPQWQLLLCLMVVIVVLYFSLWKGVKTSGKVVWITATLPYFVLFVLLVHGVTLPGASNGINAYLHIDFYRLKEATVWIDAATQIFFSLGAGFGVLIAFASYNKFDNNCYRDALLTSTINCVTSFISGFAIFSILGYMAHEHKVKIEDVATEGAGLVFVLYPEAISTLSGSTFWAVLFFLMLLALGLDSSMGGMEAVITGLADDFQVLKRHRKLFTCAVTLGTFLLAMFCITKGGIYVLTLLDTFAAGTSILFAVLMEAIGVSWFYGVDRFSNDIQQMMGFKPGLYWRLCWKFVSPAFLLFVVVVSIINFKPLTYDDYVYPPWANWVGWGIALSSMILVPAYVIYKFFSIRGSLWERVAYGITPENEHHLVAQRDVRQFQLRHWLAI

Cytochrome P450 3A5 = Cytochrome P450 3A5 (Homo sapiens, UniProt P20815); experiment: Inhibition of CYP3A5 in human microsome; assay type: ADME
Cytochrome P450 3A5, sequence (P20815 whole entry): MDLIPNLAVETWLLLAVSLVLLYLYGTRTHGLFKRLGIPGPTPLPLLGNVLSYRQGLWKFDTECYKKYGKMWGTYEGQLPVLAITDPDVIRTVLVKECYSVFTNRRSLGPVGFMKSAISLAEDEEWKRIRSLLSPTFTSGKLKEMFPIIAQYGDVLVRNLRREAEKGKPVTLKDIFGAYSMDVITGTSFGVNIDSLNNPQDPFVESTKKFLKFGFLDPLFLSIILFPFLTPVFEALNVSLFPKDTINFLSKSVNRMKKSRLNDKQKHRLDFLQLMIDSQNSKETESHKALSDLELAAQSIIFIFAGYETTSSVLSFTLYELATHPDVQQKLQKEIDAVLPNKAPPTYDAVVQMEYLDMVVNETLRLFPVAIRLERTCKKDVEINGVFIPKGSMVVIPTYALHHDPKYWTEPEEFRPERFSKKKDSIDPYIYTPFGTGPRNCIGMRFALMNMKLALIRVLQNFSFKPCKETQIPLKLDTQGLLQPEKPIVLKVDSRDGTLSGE

CYP1A2 = target: T1, CYP1A2 (Homo sapiens, UniProt P05177); experiment: (§1) Inhibition of CYP1A2 in human microsome at 100 uM; assay type: ADME, microsomes; settings: human microsomes
T1 sequence (P05177 whole entry): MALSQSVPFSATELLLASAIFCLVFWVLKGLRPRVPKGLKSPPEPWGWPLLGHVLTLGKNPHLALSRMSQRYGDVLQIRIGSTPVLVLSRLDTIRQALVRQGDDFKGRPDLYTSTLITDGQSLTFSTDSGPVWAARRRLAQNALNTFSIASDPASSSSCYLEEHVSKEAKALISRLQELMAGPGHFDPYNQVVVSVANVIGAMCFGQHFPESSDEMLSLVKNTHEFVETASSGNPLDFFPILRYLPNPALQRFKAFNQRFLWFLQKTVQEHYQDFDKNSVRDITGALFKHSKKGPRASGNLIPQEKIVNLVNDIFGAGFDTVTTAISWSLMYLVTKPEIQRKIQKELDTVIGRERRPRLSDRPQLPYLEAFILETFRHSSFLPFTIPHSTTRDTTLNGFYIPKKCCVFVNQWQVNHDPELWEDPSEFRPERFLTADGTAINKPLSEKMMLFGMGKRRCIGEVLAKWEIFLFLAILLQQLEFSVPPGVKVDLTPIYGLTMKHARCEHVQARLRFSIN

Rattus norvegicus = experiment: Wake promoting activity in Sprague-Dawley rat assessed as increase of wake duration at 100 mg/kg, ip after 4 hrs (reference value: 79.2 +/- 7.2 mins); assay type: functional; settings: route intraperitoneal
CYP1A1 = target: T2, CYP1A1 (Homo sapiens, UniProt P04798); experiment: (§2) Inhibition of CYP1A1 in human microsome at 100 uM; assay type: ADME, microsomes; settings: human microsomes
T2 sequence (P04798 whole entry): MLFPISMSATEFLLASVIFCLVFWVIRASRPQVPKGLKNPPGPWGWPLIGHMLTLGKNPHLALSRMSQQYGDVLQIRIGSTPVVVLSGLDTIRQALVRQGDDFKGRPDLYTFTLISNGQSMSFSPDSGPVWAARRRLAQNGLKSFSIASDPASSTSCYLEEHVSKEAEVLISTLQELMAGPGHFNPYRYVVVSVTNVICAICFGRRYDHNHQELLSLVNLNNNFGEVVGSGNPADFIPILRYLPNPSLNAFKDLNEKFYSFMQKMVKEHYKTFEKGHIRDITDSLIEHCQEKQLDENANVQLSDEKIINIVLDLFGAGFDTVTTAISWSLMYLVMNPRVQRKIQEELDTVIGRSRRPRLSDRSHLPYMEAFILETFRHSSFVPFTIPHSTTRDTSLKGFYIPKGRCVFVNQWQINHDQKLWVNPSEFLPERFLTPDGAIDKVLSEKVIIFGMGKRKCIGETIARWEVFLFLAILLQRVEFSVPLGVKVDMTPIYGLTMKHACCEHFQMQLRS

Cytochrome P450 2C9 = Cytochrome P450 2C9 (Homo sapiens, UniProt P11712); experiment: Inhibition of CYP2C9 in human microsome; assay type: ADME
Cytochrome P450 2C9, sequence (P11712 whole entry): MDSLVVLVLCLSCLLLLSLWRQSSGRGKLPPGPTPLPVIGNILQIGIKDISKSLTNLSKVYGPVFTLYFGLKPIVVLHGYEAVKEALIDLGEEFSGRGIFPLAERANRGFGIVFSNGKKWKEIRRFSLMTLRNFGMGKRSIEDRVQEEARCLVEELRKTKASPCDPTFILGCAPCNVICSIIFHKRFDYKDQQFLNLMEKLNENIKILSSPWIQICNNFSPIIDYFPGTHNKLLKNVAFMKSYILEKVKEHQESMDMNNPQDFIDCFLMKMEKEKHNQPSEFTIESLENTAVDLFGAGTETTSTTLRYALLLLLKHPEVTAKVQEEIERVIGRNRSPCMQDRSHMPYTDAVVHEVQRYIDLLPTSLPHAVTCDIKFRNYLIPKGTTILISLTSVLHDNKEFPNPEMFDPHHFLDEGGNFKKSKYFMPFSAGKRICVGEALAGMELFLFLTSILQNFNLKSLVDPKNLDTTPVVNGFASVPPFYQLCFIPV

Cytochrome P450 3A4 = Cytochrome P450 3A4 (Homo sapiens, UniProt P08684); experiment: Inhibition of CYP3A4 in human microsome; assay type: ADME
Cytochrome P450 3A4, sequence (P08684 whole entry): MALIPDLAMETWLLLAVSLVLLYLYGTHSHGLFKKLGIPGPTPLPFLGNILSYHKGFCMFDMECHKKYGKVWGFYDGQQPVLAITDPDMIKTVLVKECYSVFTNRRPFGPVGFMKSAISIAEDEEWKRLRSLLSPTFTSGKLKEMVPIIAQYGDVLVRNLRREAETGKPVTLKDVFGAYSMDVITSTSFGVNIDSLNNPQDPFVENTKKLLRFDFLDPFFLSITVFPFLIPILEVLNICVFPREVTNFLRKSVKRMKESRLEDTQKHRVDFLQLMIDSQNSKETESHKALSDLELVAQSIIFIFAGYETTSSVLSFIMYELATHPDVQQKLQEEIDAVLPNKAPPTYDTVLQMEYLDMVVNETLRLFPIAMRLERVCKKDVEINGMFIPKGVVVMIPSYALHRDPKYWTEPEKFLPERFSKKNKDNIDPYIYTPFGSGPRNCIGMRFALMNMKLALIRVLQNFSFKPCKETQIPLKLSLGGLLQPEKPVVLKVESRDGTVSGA

[2] = target: T3, Sodium-dependent dopamine transporter (Rattus norvegicus, UniProt P23977); experiment: Inhibition of rat DAT
T3 sequence (P23977 whole entry): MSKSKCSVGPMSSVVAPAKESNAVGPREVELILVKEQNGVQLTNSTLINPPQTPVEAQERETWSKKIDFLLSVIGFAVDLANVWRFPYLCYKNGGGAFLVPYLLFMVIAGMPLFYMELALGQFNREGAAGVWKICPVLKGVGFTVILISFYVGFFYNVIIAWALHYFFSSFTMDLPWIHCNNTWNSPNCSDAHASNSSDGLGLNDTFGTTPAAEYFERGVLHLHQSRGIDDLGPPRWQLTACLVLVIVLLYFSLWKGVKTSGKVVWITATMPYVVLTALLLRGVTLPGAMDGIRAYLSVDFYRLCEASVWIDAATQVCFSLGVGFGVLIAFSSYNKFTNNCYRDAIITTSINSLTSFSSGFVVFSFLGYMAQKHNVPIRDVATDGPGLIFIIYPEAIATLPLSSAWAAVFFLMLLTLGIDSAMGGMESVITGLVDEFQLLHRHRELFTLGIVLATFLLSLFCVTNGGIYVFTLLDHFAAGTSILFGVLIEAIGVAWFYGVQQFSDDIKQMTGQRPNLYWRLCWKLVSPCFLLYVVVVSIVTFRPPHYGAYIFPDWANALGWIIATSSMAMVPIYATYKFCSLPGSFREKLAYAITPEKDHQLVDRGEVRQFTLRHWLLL

[3] = target: Transporter (Rattus norvegicus) (UniProt Q63380); experiment: Inhibition of rat NET at 10 uM
Transporter (Rattus norvegicus), sequence (Q63380 as listed by the source): as the sequence (Q63380 whole entry) above

[4] = target: Sodium-dependent serotonin transporter (Rattus norvegicus) (UniProt P31652); experiment: Inhibition of rat SERT at 10 uM
Sodium-dependent serotonin transporter (Rattus norvegicus), sequence (P31652 whole entry): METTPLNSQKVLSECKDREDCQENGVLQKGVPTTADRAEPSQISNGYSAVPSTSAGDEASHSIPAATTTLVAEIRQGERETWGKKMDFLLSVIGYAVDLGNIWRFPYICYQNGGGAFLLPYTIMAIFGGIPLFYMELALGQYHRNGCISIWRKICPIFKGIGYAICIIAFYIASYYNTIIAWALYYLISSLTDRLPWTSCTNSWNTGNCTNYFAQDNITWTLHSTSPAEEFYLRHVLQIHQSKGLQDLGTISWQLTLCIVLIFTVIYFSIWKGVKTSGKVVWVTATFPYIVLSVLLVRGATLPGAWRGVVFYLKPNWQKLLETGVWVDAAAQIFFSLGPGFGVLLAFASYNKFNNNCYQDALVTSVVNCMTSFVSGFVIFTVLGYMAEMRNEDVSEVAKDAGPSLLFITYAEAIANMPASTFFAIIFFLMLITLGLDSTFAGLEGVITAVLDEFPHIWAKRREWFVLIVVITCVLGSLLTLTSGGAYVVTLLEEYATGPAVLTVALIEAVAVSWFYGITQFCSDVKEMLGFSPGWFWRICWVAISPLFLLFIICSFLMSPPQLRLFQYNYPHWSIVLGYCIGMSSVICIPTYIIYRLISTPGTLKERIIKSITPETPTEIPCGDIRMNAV

[5] = target: T3, Sodium-dependent dopamine transporter; experiment: Inhibition of rat DAT-mediated uptake
Cytochrome P450 1A2 = target: T4, Cytochrome P450 1A2 (Homo sapiens, UniProt P05177); experiment: as §1; assay type: ADME, microsomes; settings: microsomes, 100 µM
T4 sequence (P05177 whole entry): T1 sequence (P05177 whole entry)

Cytochrome P450 1A1 = target: T5, Cytochrome P450 1A1 (Homo sapiens, UniProt P04798); experiment: as §2; assay type: ADME, microsomes; settings: microsomes, 100 µM
T5 sequence (P04798 whole entry): T2 sequence (P04798 whole entry)

Cytochrome P450 2D6, sequence (P10635 whole entry): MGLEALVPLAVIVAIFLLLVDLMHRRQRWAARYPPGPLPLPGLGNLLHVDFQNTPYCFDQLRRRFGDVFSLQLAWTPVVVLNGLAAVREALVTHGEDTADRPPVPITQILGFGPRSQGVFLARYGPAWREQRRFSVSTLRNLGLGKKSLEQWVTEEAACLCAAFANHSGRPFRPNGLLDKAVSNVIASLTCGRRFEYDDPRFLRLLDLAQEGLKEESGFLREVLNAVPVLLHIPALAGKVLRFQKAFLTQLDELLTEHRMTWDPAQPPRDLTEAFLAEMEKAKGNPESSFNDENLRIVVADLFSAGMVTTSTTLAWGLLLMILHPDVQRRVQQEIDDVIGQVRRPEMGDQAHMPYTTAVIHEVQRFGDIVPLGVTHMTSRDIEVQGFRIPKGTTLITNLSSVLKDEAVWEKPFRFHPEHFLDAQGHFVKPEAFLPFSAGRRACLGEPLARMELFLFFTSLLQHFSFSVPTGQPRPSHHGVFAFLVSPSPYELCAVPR
Sodium-dependent serotonin transporter, sequence (P31652 whole entry): as the sequence (P31652 whole entry) above

Compound	IC50 (Cytochrome P450 2D6) [µM]	IC50 [1] [µM]	IC50 (Cytochrome P450 2C19) [µM]	IC50 (Transporter) [µM]	IC50 (Cytochrome P450 3A5) [µM]	inhibition at 100 µM (CYP1A2) [%]	Time (Rattus norvegicus) [min]	inhibition at 100 µM (CYP1A1) [%]	IC50 (Cytochrome P450 2C9) [µM]	IC50 (Cytochrome P450 3A4) [µM]	IC50 [2] [nM]	inhibition [3] [%]	inhibition [4] [%]	IC50 [5] [µM]	inhibition (INH) (Cytochrome P450 1A2) [%]	inhibition (INH) (Cytochrome P450 1A1) [%]
NC(=O)C[S+]([O-])Cc1ccccc1-c1ccc(Cl)cc1 (single isomer, unassigned; (-)) [listing 1 of 2 here]	177	> 300	174	11	139	14	238.5	14	233	139	400	–	–	–	–	–
NC(=O)C[S+]([O-])Cc1ccccc1-c1ccc(Cl)cc1 (single isomer, unassigned; (+)) [listing 1 of 2 here]	–	–	–	–	–	–	–	–	–	–	–	12	4	–	–	–
NC(=O)C[S+]([O-])Cc1ccccc1-c1ccc(Cl)cc1 (single isomer, unassigned; (+)) [listing 2 of 2 here]	151	> 300	112	32	159	–	227.1	–	129	159	4200	–	–	3.8	20	20
NC(=O)C[S+]([O-])Cc1ccccc1-c1ccc(Cl)cc1 (single isomer, unassigned; (-)) [listing 2 of 2 here]	–	–	–	–	–	–	–	–	–	–	–	16	3	–	–	–
